Measurements published in ChEMBL document CHEMBL1135944, “Identification of potent and selective oxytocin antagonists. Part 1: indole and benzofuran derivatives” (Bioorg Med Chem Lett, 2002).

Assays:
Oxytocin receptor [1] = biological target: T1, Oxytocin receptor (Homo sapiens, UniProt P30559); assay: Ability to displace [3H]oxytocin from human OT receptor (hOT)
T1 sequence (P30559 whole entry): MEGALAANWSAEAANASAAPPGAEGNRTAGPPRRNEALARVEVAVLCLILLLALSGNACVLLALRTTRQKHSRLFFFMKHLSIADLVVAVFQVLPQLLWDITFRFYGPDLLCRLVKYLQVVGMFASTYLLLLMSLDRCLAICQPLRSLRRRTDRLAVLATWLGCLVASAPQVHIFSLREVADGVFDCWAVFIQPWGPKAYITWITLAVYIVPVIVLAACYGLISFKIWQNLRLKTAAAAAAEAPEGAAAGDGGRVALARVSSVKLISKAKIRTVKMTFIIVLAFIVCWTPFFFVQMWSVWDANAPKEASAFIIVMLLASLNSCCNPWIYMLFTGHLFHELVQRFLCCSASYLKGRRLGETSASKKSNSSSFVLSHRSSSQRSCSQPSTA

[2] = The pharmacokinetic parameter, clearance was reported in dog after intravenous administration; format: ADME, organism-based, Canis lupus familiaris; conditions: in vivo
[3] = Bioavailability in dog; format: ADME, organism-based, Canis lupus familiaris; conditions: in vivo
Oxytocin receptor [4] = biological target: T1, Oxytocin receptor; assay: Compound was tested for its ability to displace [3H]oxytocin from human Oxytocin receptor

COc1cc(OC2CCN(C(C)=O)CC2)ccc1C(=O)N1CCC(N2C(=O)OCc3ccccc32)CC1
Ki (Oxytocin receptor [1]): 10 nM

CN1CC(=O)N(CC(=O)NCc2cc3cc(C(=O)N4CCC(N5C(=O)OCc6ccccc65)CC4)ccc3o2)C1=O
Ki (Oxytocin receptor [1]): 3.16 nM | clearance [2]: 20 mL/min/kg

CN1CCC(=O)N(CC(=O)NCc2cc3cc(C(=O)N4CCC(N5C(=O)OCc6ccccc65)CC4)ccc3o2)C1=O
Ki (Oxytocin receptor [1]): 3.98 nM | clearance [2]: 27 mL/min/kg

O=C(c1ccc2cc[nH]c2c1)N1CCC(N2C(=O)OCc3ccccc32)CC1
Ki (Oxytocin receptor [1]): 200 nM

CS(=O)(=O)N1CCN(Cc2cc3cc(C(=O)N4CCC(N5C(=O)OCc6ccccc65)CC4)ccc3o2)CC1
bioavailability [3]: 100% | Ki (Oxytocin receptor [1]): 63.1 nM | clearance [2]: 7 mL/min/kg

CS(=O)(=O)N1CCC[C@@H]1Cn1ccc2cc(C(=O)N3CCC(N4C(=O)OCc5ccccc54)CC3)ccc21
Ki (Oxytocin receptor [1]): 20 nM

CC(=O)NCC(=O)NCc1cc2cc(C(=O)N3CCC(N4C(=O)OCc5ccccc54)CC3)ccc2o1
bioavailability [3]: 16% | Ki (Oxytocin receptor [1]): 15.8 nM | clearance [2]: 18 mL/min/kg

CC1(C)NC(=O)N(CC(=O)NCc2cc3cc(C(=O)N4CCC(N5C(=O)OCc6ccccc65)CC4)ccc3o2)C1=O
Ki (Oxytocin receptor [1]): 15.8 nM | clearance [2]: 20 mL/min/kg

CN(CCCn1ccc2cc(C(=O)N3CCC(N4C(=O)OCc5ccccc54)CC3)ccc21)S(C)(=O)=O
Ki (Oxytocin receptor [1]): 158 nM

CS(=O)(=O)NCCn1ccc2cc(C(=O)N3CCC(N4C(=O)OCc5ccccc54)CC3)ccc21
Ki (Oxytocin receptor [1]): 316 nM

O=C(c1ccc2occc2c1)N1CCC(N2C(=O)OCc3ccccc32)CC1
Ki (Oxytocin receptor [1]): 251 nM

CC(=O)N1CCN(Cc2cc3cc(C(=O)N4CCC(N5C(=O)OCc6ccccc65)CC4)ccc3o2)CC1
bioavailability [3]: 44% | Ki (Oxytocin receptor [1]): 79.4 nM | clearance [2]: 11 mL/min/kg

CC(=O)N1CCC[C@@H]1Cn1ccc2cc(C(=O)N3CCC(N4C(=O)OCc5ccccc54)CC3)ccc21
Ki (Oxytocin receptor [1]): 158 nM

CC(=O)N(C)CCn1ccc2cc(C(=O)N3CCC(N4C(=O)OCc5ccccc54)CC3)ccc21
Ki (Oxytocin receptor [1]): 63.1 nM

CS(=O)(=O)N1CCC[C@H]1Cn1ccc2cc(C(=O)N3CCC(N4C(=O)OCc5ccccc54)CC3)ccc21
Ki (Oxytocin receptor [4]): 126 nM

Cc1c[nH]c2ccc(C(=O)N3CCC(N4C(=O)OCc5ccccc54)CC3)cc12
Ki (Oxytocin receptor [1]): 794 nM

Cn1ccc2cc(C(=O)N3CCC(N4C(=O)OCc5ccccc54)CC3)ccc21
Ki (Oxytocin receptor [1]): 126 nM

CC(=O)N1CCCC(c2cc3cc(C(=O)N4CCC(N5C(=O)OCc6ccccc65)CC4)ccc3o2)C1 (centres undefined)
Ki (Oxytocin receptor [1]): 200 nM

CN(CCn1ccc2cc(C(=O)N3CCC(N4C(=O)OCc5ccccc54)CC3)ccc21)S(C)(=O)=O
Ki (Oxytocin receptor [1]): 39.8 nM

CC(=O)NCCc1cc2cc(C(=O)N3CCC(N4C(=O)OCc5ccccc54)CC3)ccc2o1
bioavailability [3]: 27% | Ki (Oxytocin receptor [1]): 39.8 nM | clearance [2]: 9 mL/min/kg

Cc1c(C)n(C[C@H]2CCCN2S(C)(=O)=O)c2ccc(C(=O)N3CCC(N4C(=O)OCc5ccccc54)CC3)cc12
Ki (Oxytocin receptor [1]): 398 nM

O=C(Cc1cccnc1)NCc1cc2cc(C(=O)N3CCC(N4C(=O)OCc5ccccc54)CC3)ccc2o1
Ki (Oxytocin receptor [1]): 25.1 nM | clearance [2]: 49 mL/min/kg

CN(Cc1cc2cc(C(=O)N3CCC(N4C(=O)OCc5ccccc54)CC3)ccc2o1)C(=O)CN1C(=O)CNC1=O
bioavailability [3]: 12% | Ki (Oxytocin receptor [1]): 25.1 nM | clearance [2]: 15 mL/min/kg

O=C(c1ccc2[nH]ccc2c1)N1CCC(N2C(=O)OCc3ccccc32)CC1
Ki (Oxytocin receptor [1]): 200 nM

CC(=O)NCc1cc2cc(C(=O)N3CCC(N4C(=O)OCc5ccccc54)CC3)ccc2o1
Ki (Oxytocin receptor [1]): 63.1 nM | clearance [2]: 8 mL/min/kg

O=C(CN1C(=O)CNC1=O)NCc1cc2cc(C(=O)N3CCC(N4C(=O)OCc5ccccc54)CC3)ccc2o1
bioavailability [3]: 8% | Ki (Oxytocin receptor [1]): 6.31 nM | clearance [2]: 17 mL/min/kg

CC(=O)N1CCC(c2cc3cc(C(=O)N4CCC(N5C(=O)OCc6ccccc65)CC4)ccc3o2)CC1
bioavailability [3]: 49% | Ki (Oxytocin receptor [1]): 63.1 nM | clearance [2]: 6 mL/min/kg

O=C(c1ccc2[nH]ccc2n1)N1CCC(N2C(=O)OCc3ccccc32)CC1
Ki (Oxytocin receptor [1]): 794 nM

Cc1nc(-c2cccs2)ncc1C(=O)N1CCC(N2C(=O)OCc3ccccc32)CC1
Ki (Oxytocin receptor [1]): 158 nM

O=C(c1ccc2ccoc2c1)N1CCC(N2C(=O)OCc3ccccc32)CC1
Ki (Oxytocin receptor [1]): 398 nM

CC1OC(=O)N(CC(=O)NCc2cc3cc(C(=O)N4CCC(N5C(=O)OCc6ccccc65)CC4)ccc3o2)C1=O (centres undefined)
Ki (Oxytocin receptor [1]): 25.1 nM

CC(=O)NCCn1ccc2cc(C(=O)N3CCC(N4C(=O)OCc5ccccc54)CC3)ccc21
Ki (Oxytocin receptor [1]): 398 nM

CS(=O)(=O)N1CCC[C@@H]1Cc1coc2cc(C(=O)N3CCC(N4C(=O)OCc5ccccc54)CC3)ccc12
Ki (Oxytocin receptor [1]): 200 nM

CS(=O)(=O)N1CCC(c2cc3cc(C(=O)N4CCC(N5C(=O)OCc6ccccc65)CC4)ccc3o2)CC1
bioavailability [3]: 69% | Ki (Oxytocin receptor [1]): 79.4 nM | clearance [2]: 9 mL/min/kg

Cc1nc(-c2ccncc2)sc1C(=O)N1CCC(N2C(=O)OCc3ccccc32)CC1
Ki (Oxytocin receptor [1]): 126 nM

O=C(c1ccc2ncsc2c1)N1CCC(N2C(=O)OCc3ccccc32)CC1
Ki (Oxytocin receptor [1]): 794 nM

CC(=O)N1CCC[C@@H]1c1cc2cc(C(=O)N3CCC(N4C(=O)OCc5ccccc54)CC3)ccc2o1
Ki (Oxytocin receptor [1]): 25.1 nM | clearance [2]: 31 mL/min/kg

CN(CCn1cnc2cc(C(=O)N3CCC(N4C(=O)OCc5ccccc54)CC3)ccc21)S(C)(=O)=O
Ki (Oxytocin receptor [1]): 398 nM

Cc1cc2cc(C(=O)N3CCC(N4C(=O)OCc5ccccc54)CC3)ccc2[nH]1
Ki (Oxytocin receptor [1]): 126 nM

Cc1cc(C(=O)N2CCC(N3C(=O)OCc4ccccc43)CC2)cc2ccn(C[C@H]3CCCN3S(C)(=O)=O)c12
Ki (Oxytocin receptor [1]): 10 nM

O=C(CN1CCCC1=O)NCc1cc2cc(C(=O)N3CCC(N4C(=O)OCc5ccccc54)CC3)ccc2o1
Ki (Oxytocin receptor [1]): 25.1 nM | clearance [2]: 34 mL/min/kg
